# Measured values as given in ChEMBL document CHEMBL1201862, “PubChem BioAssay data set” (2004).
# Activity calls are given as the source filed them.
# How the values were obtained:
# [1] = target: T1, Small ubiquitin-related modifier 1 (Homo sapiens, UniProt P63165); test: SUMO1 protein interaction blockers, potency – biochemical, fluorescence polarization, uHTS hits, dose response (AID 624382); assay type: functional; conditions: read-out: IC50_Mean
# [2] = target: T1, Small ubiquitin-related modifier 1; test: SUMO1 protein-protein binding blockers, potency – biochemical, FRET, dose response (AID 624383); assay type: functional; conditions: read-out: IC50_Mean
# Estrogen receptor = target: T2, Estrogen receptor (Homo sapiens, UniProt P03372);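 further: potency for inhibiting coactivator peptide recruitment to the receptor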
# T2 sequence (P03372 whole entry): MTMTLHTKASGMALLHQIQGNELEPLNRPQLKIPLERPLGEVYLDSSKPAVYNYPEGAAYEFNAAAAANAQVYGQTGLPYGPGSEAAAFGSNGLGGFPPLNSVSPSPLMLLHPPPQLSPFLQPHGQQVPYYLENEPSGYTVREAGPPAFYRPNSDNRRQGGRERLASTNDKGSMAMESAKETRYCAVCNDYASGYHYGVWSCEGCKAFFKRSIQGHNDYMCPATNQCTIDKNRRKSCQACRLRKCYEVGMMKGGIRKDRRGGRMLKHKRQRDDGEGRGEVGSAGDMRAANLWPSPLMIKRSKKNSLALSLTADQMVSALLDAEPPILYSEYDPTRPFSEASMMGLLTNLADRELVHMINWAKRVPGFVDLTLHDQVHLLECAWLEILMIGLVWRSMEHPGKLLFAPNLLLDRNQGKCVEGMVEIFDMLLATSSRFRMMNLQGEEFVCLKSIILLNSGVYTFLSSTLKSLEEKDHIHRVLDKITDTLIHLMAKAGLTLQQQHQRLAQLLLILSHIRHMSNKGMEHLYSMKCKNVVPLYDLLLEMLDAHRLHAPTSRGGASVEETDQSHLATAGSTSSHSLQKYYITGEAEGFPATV
# [3] = target: T3, Corticotropin-releasing factor receptor 2/Corticotropin-releasing factor-binding protein (Homo sapiens, UniProt P24387+Q13324); test: Dose Response confirmation of uHTS hits for small molecule antagonists of the CRF-binding protein and CRF-R2 receptor complex.; assay type: functional; conditions: read-out: IC50_Mean
# T3 sequence (Q13324 whole entry): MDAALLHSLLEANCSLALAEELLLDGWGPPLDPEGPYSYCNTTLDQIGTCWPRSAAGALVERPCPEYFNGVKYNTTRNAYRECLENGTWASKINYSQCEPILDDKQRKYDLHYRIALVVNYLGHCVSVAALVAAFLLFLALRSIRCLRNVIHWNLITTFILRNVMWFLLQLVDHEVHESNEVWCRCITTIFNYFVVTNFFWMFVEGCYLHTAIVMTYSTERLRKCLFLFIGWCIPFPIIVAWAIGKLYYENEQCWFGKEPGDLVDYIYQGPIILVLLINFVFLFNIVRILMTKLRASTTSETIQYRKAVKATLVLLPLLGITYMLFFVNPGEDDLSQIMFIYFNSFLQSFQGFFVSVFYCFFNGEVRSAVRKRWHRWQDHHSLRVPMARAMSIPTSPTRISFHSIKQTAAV
# T3 sequence (P24387 whole entry): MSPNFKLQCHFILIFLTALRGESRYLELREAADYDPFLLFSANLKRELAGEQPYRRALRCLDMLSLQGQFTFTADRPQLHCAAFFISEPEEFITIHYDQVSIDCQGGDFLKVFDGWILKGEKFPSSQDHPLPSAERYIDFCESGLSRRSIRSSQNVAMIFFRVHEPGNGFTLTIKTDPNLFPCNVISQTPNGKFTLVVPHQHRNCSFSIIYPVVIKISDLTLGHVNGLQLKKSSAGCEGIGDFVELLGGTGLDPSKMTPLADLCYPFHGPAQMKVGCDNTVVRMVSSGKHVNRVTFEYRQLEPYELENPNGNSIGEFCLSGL
# [4] = target: T3, Corticotropin-releasing factor receptor 2/Corticotropin-releasing factor-binding protein; test: activators of CRF receptor 2 with binding protein – uHTS hits, confirmation (AID 602473); assay type: functional; conditions: read-out: EC50_Mean
# [5] = blockers of CRF-binding protein–CRF-R2 complex – cell-based, uHTS hits, 384-well, dose response (AID 651639); assay type: functional, Homo sapiens; conditions: read-out: IC50_Mean
# T1 sequence (P63165 whole entry): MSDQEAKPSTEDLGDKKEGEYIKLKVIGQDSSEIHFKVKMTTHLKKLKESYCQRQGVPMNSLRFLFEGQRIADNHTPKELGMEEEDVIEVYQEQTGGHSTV
IC50 [3],EC50 [4],IC50 [5],SMILES,IC50 [1],IC50 [2],IC50 (Estrogen receptor)
,,,Cc1ccc(-n2nnnc2SCC(=O)Nc2ccc3c(c2)COC3=O)cc1C,> 66.6 µM (inactive),8.2 µM (active),27.1 µM (active)
6.02 µM (active),> 53 µM (inactive),> 20 µM (inactive),Cc1cc(C)cc(N(C(=O)c2nsc(Cl)c2Cl)C(C(=O)NC2CCCC2)c2ccc(O)cc2)c1 (stereo unspecified),,,
